# Legend:
# Type in all cases: in vivo
# rice (Oryza saliva) = assay: Test C flooded paddy test; details: for Rice plant response rating: Flooded Paddy, scale 0 to 100, 0 no effect, 100 complete control; for Plant response rating, Rice: flooded paddy test, scale 0 to 100 (0 no effect, 100 complete control)
# Method in brief: (§1)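 Visual ratings (0 = no effect, 100 = complete control) were made 12–14 days after treatment, relative to greenhouse controls. Plants in the flooded paddy test were rice, smallflower flatsedge, duck salad and barnyardgrass, treated at the 2-leaf stage.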
# [1] = tested on: barnyardgrass (Echinochloa crus-galli); assay: Test C flooded paddy test; details: for Barnyardgrass plant response rating: Flooded Paddy, scale 0 to 100, 0 no effect, 100 complete control; for Plant response rating, Barnyardgrass: flooded paddy test, scale 0 to 100 (0 no effect, 100 complete control)
# Method in brief: as §1
# Sunflower = assay: Test C preemergence; details: visual evaluation after 12 to 14 days
# [2] = tested on: common ragweed (Ambrosia elatior); assay: Test C preemergence; details: preemergence; for Plant response rating (0 to 100), Ragweed, Common: visual evaluation after 12 to 14 days
# Excerpt: (§2) Seeds of plant species selected from bermudagrass (Cynodon dactylon), Surinam grass (Brachiaria decumbens), cocklebur (Xanthium strumarium), corn (Zea mays), crabgrass (Digitaria sanguinalis), woolly cupgrass (Eriochloa villosa), giant foxtail (Setaria faberii), goosegrass (Eleusine indica), johnsongrass (Sorghum halepense), kochia (Kochia scoparia), lambsquarters (Chenopodium album), morningglory (Ipomoea hederacea), yellow nutsedge (Cyperus esculentus), pigweed (Amaranthus retroflexus), common ragweed (Ambrosia elatior), soybean (Glycine max) and velvetleaf (Abutilon theophrasti) were planted and treated preemergence with test chemicals formulated in a non-phytotoxic solvent mixture which included a surfactant.
# (§3) At the same time, plants selected from these crop and weed species and also winter barley (Hordeum vulgare), blackgrass (Alopecurus myosuroides), canary grass (Phalaris minor), chickweed (Stellaria media), downy brome (Bromus tectorum), green foxtail (Setaria viridis), Italian ryegrass (Lolium multiflorum), wheat (Triticum aestivum), wild oat (Avena fatua) and windgrass (Apera spica-venti) were treated with postemergence applications of some of the test chemicals formulated in the same manner. Plants ranged in height from 2 to 18 cm (1- to 4-leaf stage) for postemergence treatments. Plant species in the flooded paddy test consisted of rice (Oryza saliva), smallflower flatsedge (Cyperus difformis), duck salad (Heteranthera limosa) and barnyardgrass (Echinochloa crus-galli) grown to the 2-leaf stage for testing. Treated plants and controls were maintained in a greenhouse for 12 to 14 days, after which time all species were compared to controls and visually evaluated. Plant response ratings, summarized in Table C, are based on a scale of 0 to 100 where 0 is no effect and 100 is complete control. A dash (-) response means no test result.
# [3] = tested on: goosegrass (Eleusine indica); assay: Test C preemergence; details: for Plant response rating, Goosegrass: scale 0 to 100, 0 no effect, 100 complete control; for Plant response rating (0 to 100), Goosegrass: visual evaluation after 12 to 14 days
# Excerpt: as §2, §3
# [4] = tested on: pigweed (Amaranthus retroflexus); assay: Test C preemergence; details: preemergence; for Plant response rating (0 to 100), Pigweed: visual evaluation after 12 to 14 days
# Excerpt: as §2, §3
# [5] = tested on: bermudagrass (Cynodon dactylon); assay: Test C preemergence; details: for Plant response rating, Bermudagrass: scale 0 to 100, 0 no effect, 100 complete control; for Plant response rating (0 to 100 where 0 is no effect and 100 is complete control), Bermudagrass: visual evaluation after 12 to 14 days
# Excerpt: as §2, §3
# soybean (Glycine max) = assay: Test C preemergence; details: preemergence; for Plant response rating (0 to 100), Soybean: visual evaluation after 12 to 14 days
# Excerpt: as §2, §3
# [6] = tested on: johnsongrass (Sorghum halepense); assay: Test C preemergence; details: for Plant response rating, Johnsongrass: scale 0 to 100, 0 no effect, 100 complete control; for Plant response rating (0 to 100), Johnsongrass: visual evaluation after 12 to 14 days
# Excerpt: as §2, §3
# [7] = tested on: cocklebur (Xanthium strumarium); assay: Test C preemergence; details: for Plant response rating, Cocklebur: scale 0 to 100, 0 no effect, 100 complete control; for Plant response rating (0 to 100), Cocklebur: visual evaluation after 12 to 14 days
# Excerpt: as §2, §3
# [8] = tested on: morningglory (Ipomoea hederacea); assay: Test C preemergence; details: for Plant response rating, Morningglory: scale 0 to 100, 0 no effect, 100 complete control; for Plant response rating (0 to 100), Morningglory: visual evaluation after 12 to 14 days
# Excerpt: as §2, §3
# [9] = tested on: woolly cupgrass (Eriochloa villosa); assay: Test C preemergence; details: for Plant response rating, Cupgrass, Woolly: scale 0 to 100, 0 no effect, 100 complete control; for Plant response rating (0 to 100), Cupgrass, Woolly: visual evaluation after 12 to 14 days
# Excerpt: as §2, §3
# [10] = tested on: crabgrass (Digitaria sanguinalis); assay: Test C preemergence; details: for Plant response rating, Crabgrass: scale 0 to 100, 0 no effect, 100 complete control; for Plant response rating (0 to 100), Crabgrass: visual evaluation after 12 to 14 days
# Excerpt: as §2, §3
# [11] = tested on: yellow nutsedge (Cyperus esculentus); assay: Test C preemergence; details: for Plant response rating, Nutsedge: scale 0 to 100, 0 no effect, 100 complete control; for Plant response rating (0 to 100), Nutsedge: visual evaluation after 12 to 14 days
# Excerpt: as §2, §3
# [12] = tested on: velvetleaf (Abutilon theophrasti); assay: Test C preemergence; details: preemergence; for Plant response rating (0 to 100), Velvetleaf: visual evaluation after 12 to 14 days
# Excerpt: as §2, §3
# [13] = tested on: giant foxtail (Setaria faberii); assay: Test C preemergence; details: for Plant response rating, Foxtail, Giant: scale 0 to 100, 0 no effect, 100 complete control
# Excerpt: as §2, §3
# corn (Zea mays) = assay: Test C preemergence; details: for Plant response rating, Corn: scale 0 to 100, 0 no effect, 100 complete control; for Plant response rating (0 to 100), Corn: visual evaluation after 12 to 14 days
# Excerpt: as §2, §3
# [14] = tested on: Surinam grass (Brachiaria decumbens); assay: Test C preemergence; details: for Plant response rating, Surinam grass: scale 0 to 100, 0 no effect, 100 complete control; for Plant response rating (0 to 100), Surinam grass: visual evaluation after 12 to 14 days
# Excerpt: as §2, §3
# kochia (Kochia scoparia) = assay: Test C preemergence; details: for Plant response rating, Kochia: scale 0 to 100, 0 no effect, 100 complete control; for Plant response rating (0 to 100), Kochia: visual evaluation after 12 to 14 days
# Excerpt: as §2, §3
# Nightshade = assay: Test C preemergence; details: scale 0 to 100, 0 no effect, 100 complete control
# Excerpt: as §2, §3
# [15] = Rate 125 g/ha, scale 0 to 100, 0 no effect, 100 complete control
smiles,measurement,setting,value
CC1(c2ccn(C3OCN(c4cccc(C(F)(F)F)c4)C3=O)n2)CC1 (centres unmarked) [Compound 62],Rice plant response rating,rice (Oryza saliva); Rate 250 g/ha,50
same,Rice plant response rating,rice (Oryza saliva); Rate 500 g/ha,50
same,"Plant response rating, Rice",rice (Oryza saliva); Rate 62 g/ha,0
same,"Plant response rating, Rice",rice (Oryza saliva); Rate 125 g/ha,0
same,Barnyardgrass plant response rating,[1]; Rate 250 g/ha,20
same,Barnyardgrass plant response rating,[1]; Rate 500 g/ha,80
same,"Plant response rating, Barnyardgrass",[1]; Rate 62 g/ha,0
same,"Plant response rating, Barnyardgrass",[1]; Rate 125 g/ha,20
same,"Plant response rating (0 to 100), Sunflower",Sunflower; Rate 250 g/ha,0
same,"Plant response rating (0 to 100), Sunflower",Sunflower; Rate 500 g/ha,0
same,"Plant response rating (0 to 100), Ragweed, Common",[2]; Rate 250 g/ha,0
same,"Plant response rating (0 to 100), Ragweed, Common",[2]; Rate 500 g/ha,0
same,"Plant response rating, Ragweed, Common",[2]; [15],0
same,"Plant response rating, Goosegrass",[3]; Rate 62 g/ha,80
same,"Plant response rating (0 to 100), Goosegrass","[3]; preemergence, Rate 250 g/ha",100
same,"Plant response rating (0 to 100), Goosegrass","[3]; preemergence, Rate 500 g/ha",100
same,"Plant response rating, Goosegrass","[3]; preemergence, Rate 125 g/ha",90
same,"Plant response rating (0 to 100), Pigweed",[4]; Rate 250 g/ha,0
same,"Plant response rating (0 to 100), Pigweed",[4]; Rate 500 g/ha,100
same,"Plant response rating, Pigweed",[4]; [15],0
same,"Plant response rating, Bermudagrass",[5]; Rate 62 g/ha,40
same,"Plant response rating (0 to 100 where 0 is no effect and 100 is complete control), Bermudagrass","[5]; preemergence, Rate 250 g/ha",100
same,"Plant response rating (0 to 100 where 0 is no effect and 100 is complete control), Bermudagrass","[5]; preemergence, Rate 500 g/ha",100
same,"Plant response rating, Bermudagrass","[5]; preemergence, Rate 125 g/ha",70
same,"Plant response rating (0 to 100), Soybean",soybean (Glycine max); Rate 250 g/ha,0
same,"Plant response rating (0 to 100), Soybean",soybean (Glycine max); Rate 500 g/ha,0
same,"Plant response rating, Soybean",soybean (Glycine max); [15],0
same,"Plant response rating, Johnsongrass",[6]; Rate 62 g/ha,20
same,"Plant response rating (0 to 100), Johnsongrass","[6]; preemergence, Rate 250 g/ha",60
same,"Plant response rating (0 to 100), Johnsongrass","[6]; preemergence, Rate 500 g/ha",100
same,"Plant response rating, Johnsongrass","[6]; preemergence, Rate 125 g/ha",40
same,"Plant response rating, Cocklebur",[7]; Rate 62 g/ha,0
same,"Plant response rating (0 to 100), Cocklebur","[7]; preemergence, Rate 250 g/ha",0
same,"Plant response rating (0 to 100), Cocklebur","[7]; preemergence, Rate 500 g/ha",0
same,"Plant response rating, Cocklebur","[7]; preemergence, Rate 125 g/ha",0
same,"Plant response rating, Morningglory",[8]; Rate 62 g/ha,0
same,"Plant response rating (0 to 100), Morningglory","[8]; preemergence, Rate 250 g/ha",0
same,"Plant response rating (0 to 100), Morningglory","[8]; preemergence, Rate 500 g/ha",0
same,"Plant response rating, Morningglory","[8]; preemergence, Rate 125 g/ha",0
same,"Plant response rating, Cupgrass, Woolly",[9]; Rate 62 g/ha,30
same,"Plant response rating (0 to 100), Cupgrass, Woolly","[9]; preemergence, Rate 250 g/ha",90
same,"Plant response rating (0 to 100), Cupgrass, Woolly","[9]; preemergence, Rate 500 g/ha",90
same,"Plant response rating, Cupgrass, Woolly","[9]; preemergence, Rate 125 g/ha",50
same,"Plant response rating, Crabgrass",[10]; Rate 62 g/ha,0
same,"Plant response rating (0 to 100), Crabgrass","[10]; preemergence, Rate 250 g/ha",100
same,"Plant response rating (0 to 100), Crabgrass","[10]; preemergence, Rate 500 g/ha",100
same,"Plant response rating, Crabgrass","[10]; preemergence, Rate 125 g/ha",90
same,"Plant response rating, Nutsedge",[11]; Rate 62 g/ha,0
same,"Plant response rating (0 to 100), Nutsedge","[11]; preemergence, Rate 250 g/ha",20
same,"Plant response rating (0 to 100), Nutsedge","[11]; preemergence, Rate 500 g/ha",70
same,"Plant response rating, Nutsedge","[11]; preemergence, Rate 125 g/ha",0
same,"Plant response rating (0 to 100), Velvetleaf",[12]; Rate 250 g/ha,0
same,"Plant response rating (0 to 100), Velvetleaf",[12]; Rate 500 g/ha,20
same,"Plant response rating, Velvetleaf",[12]; [15],0
same,"Plant response rating, Foxtail, Giant",[13]; Rate 62 g/ha,0
same,"Plant response rating (0 to 100), Foxtail, Giant","[13]; preemergence, Rate 500 g/ha, visual evaluation after 12 to 14 days",100
same,"Plant response rating, Foxtail, Giant","[13]; preemergence, Rate 125 g/ha",0
same,"Plant response rating, Corn",corn (Zea mays); Rate 62 g/ha,0
same,"Plant response rating (0 to 100), Corn","corn (Zea mays); preemergence, Rate 250 g/ha",0
same,"Plant response rating (0 to 100), Corn","corn (Zea mays); preemergence, Rate 500 g/ha",20
same,"Plant response rating, Corn","corn (Zea mays); preemergence, Rate 125 g/ha",0
same,"Plant response rating, Surinam grass",[14]; Rate 62 g/ha,0
same,"Plant response rating (0 to 100), Surinam grass","[14]; preemergence, Rate 250 g/ha",60
same,"Plant response rating (0 to 100), Surinam grass","[14]; preemergence, Rate 500 g/ha",80
same,"Plant response rating, Surinam grass","[14]; preemergence, Rate 125 g/ha",30
same,"Plant response rating, Kochia",kochia (Kochia scoparia); Rate 62 g/ha,0
same,"Plant response rating (0 to 100), Kochia","kochia (Kochia scoparia); preemergence, Rate 250 g/ha",90
same,"Plant response rating (0 to 100), Kochia","kochia (Kochia scoparia); preemergence, Rate 500 g/ha",90
same,"Plant response rating, Kochia","kochia (Kochia scoparia); preemergence, Rate 125 g/ha",60
same,"Plant response rating, Nightshade",Nightshade; Rate 62 g/ha,0
same,"Plant response rating, Nightshade",Nightshade; Rate 125 g/ha,0

# — patent publication US7138361B2, “Herbicidal heterocycles” (E. I. du Pont de Nemours and Company, priority 2000, dated 2006)
